Here are results for 9 compounds from patent US12297186B2, “Benzylamide derivatives as inhibitors of transforming growth factor-beta receptor I/ALK5” (AGOMAB SPAIN, S.L.U., priority 2019, dated 2025).

Like-named read-outs stand apart in the source and are kept apart here.

For one data set, the system named is heart valves. The following applies: rats, all doses tested; cited from earlier work.
The conditions of data set [1]: rats; cited from earlier work.
The target in a further data set is Human TGFβR-1 kinase (Homo sapiens (Human), UniProt P36897). The data set is described as follows: In vitro enzyme assay: inhibition of TGFβR-1 kinase activity (ADP-Glo). It counts as biochemical. The following applies: TGFβR-1 kinase, 50 μM ATP; read-out: IC50 range. The procedure:
In Vitro Enzyme Assay: Inhibition of TGFβR-1Kinase Activity
Human TGFβl R-1 inhibition experiments were carried out in a white 384-microplate low flange (Corning 3572) with ADP-Glo kinase Assay Kit (Promega V9101) and TGβR-1 Kinase Enzyme System (Promega V4092). […] The reaction mixture was incubated in gentle shaking for 120 min at RT, after incubation of 10 μL of ADP-Glo Reagent was added and incubated in gentle shaking for 40 min at RT. 20 μL of Kinase Detection Reagent was added and plate was incubated in gentle shaking for 30 min at RT. Luminiscence (1000 ms) was measured in Perkin Elmer EnSpire Multimode plate reader.

The target of a further data set is TGF-beta kinase (ALK-5) (Homo sapiens (Human), UniProt P36897). The data set is described as follows: Determination of the intracellular TGF-beta kinase activity (ALK-5), p-SMAD3 AlphaLISA in A549 cells. It counts as cell-based. The following applies: A549 cell line, TGF-β2 activated, p-SMAD3; read-out: IC50 range. The method, then:
Determination of the Intracellular TGF-beta Kinase Activity (ALK-5)
The experiments were carried out in A549 cell line. 30000 cells were seeded in 200 μl of culture medium (Sigma D6046) supplemented with L-Glutamine (Sigma G7513), Penicillin/Streptomycin (Invitrogen 11058) and FBS (Sigma F9665) on a 96 wells microplate (Becton Dickinson 353072). After 16 hours medium waschanged to serum free medium.

Data set [2] is described as follows: Metabolic stability assay, rat microsomes. It counts as in vitro ADME. The note with it: for microsomal CLint: rat recombinant microsomes (Tebu-Xenotech), pH 7.4. The method, then: (§1) Metabolic Stability Assay
(§2) Human and rat recombinant microsomes from Tebu-Xenotech were employed in the assay. They content 0.5 mg/ml of protein. The following quantities were added to each well of a 96-well microplate.
(§3) Plates were incubated at 37° C. and 75 μL samples were taken at 0, 10, 20, 40 and 60 minutes. Samples were transferred to a microplate and 75 μl Acetonitrile were added for inactivating the microsomes, and 30 μl of H2O for improving the chromatographic conditions and kept at 4° C. When all the samples were taken the plate was centrifuged at […] for 30 min at 15° C. Supernatant was taken and injected in the UPLC-MS/MS.
(§4) Stationary phase: Reverse phase Acquity UPLC® BEH C18 1.7 μm (2.1 mm×50 mm) (Waters). Mobile phase: A: 0.1% formic; B:acetonitrile+0.1% formic acid. Flow: 0.6 ml/min. The chromatographic equipment employed was an UPLC QSM Waters Acquity. Compound concentrations were calculated from the UV peak areas. The response was linear in the range between 10 ng/ml and 0.3125 ng/ml. Metabolic stability was calculated from the logarithm of the remaining compound at each of the times evaluated.
(§5) The data will be fitted to the one phase exponential decay equation using GraphPad Prism® software. The half-life (t1/2) generated by the software will be reported. Intrinsic clearance will be calculated using the formula where, k=decay rate constant (min^−1).

The nature of data set [3]: Metabolic stability assay, human microsomes. It counts as in vitro ADME. The following applies: for microsomal CLint: human recombinant microsomes (Tebu-Xenotech). The method, then:
as §1, §2, §3, §4, §5

Data set [4] can be described thus: Identification study of metabolite. It counts as in vitro ADME. An excerpt: In an identification study of metabolite was identified Compound A. Said compound is 2-(3-(6-methylpyridin-2-yl)-4-(quinolin-4-yl)-1H-pyrazol-1-yl)acetic acid and has the following formula: […]
Compound A was identified as the major metabolite of examples 9, 15, 20, 22, 24 and 26, among others.

The nature of data set [5]: Plasma pharmacokinetic assay, single oral administration. It counts as in vivo, male Sprague Dawley rats. The following applies: rat, P.O., 5 mg/kg. The procedure: Plasma Pharmacokinetic Assay
The objective of this study was to investigate the plasma pharmacokinetics of some compounds of the present invention in male Sprague Dawley rats following a single oral administration. Three rats per compound were used in this study. Animals were administered with suspension formulation of each compound in 0.5% Tween-80 and 99.5% NaCMC (0.5% w/v in RO Water) by oral route at 5 mg/kg. The blood samples were collected from set of three rats at each time point in labelled micro centrifuge tube containing K2EDTA solution as anticoagulant at 0.25, 0.5, 1, 2, 4, 6, 8, 12 and 24 hr (p.o.). Plasma samples were separated by centrifugation of whole blood and stored below −70±10° C. until bioanalysis. All samples were processed for analysis by protein precipitation using acetonitrile and analysed with fit-for-purpose LC-MS/MS method (LLOQ=1.01 ng/mL). Pharmacokinetic parameters were calculated using the non-compartmental analysis tool of Phoenix WinNonlin® (Version 7.0).

The target in a further data set is ALK4 (Homo sapiens (Human), UniProt P36896). The following applies: cited from earlier work.
Chain of ALK4 (P36896 24-505, species assumed): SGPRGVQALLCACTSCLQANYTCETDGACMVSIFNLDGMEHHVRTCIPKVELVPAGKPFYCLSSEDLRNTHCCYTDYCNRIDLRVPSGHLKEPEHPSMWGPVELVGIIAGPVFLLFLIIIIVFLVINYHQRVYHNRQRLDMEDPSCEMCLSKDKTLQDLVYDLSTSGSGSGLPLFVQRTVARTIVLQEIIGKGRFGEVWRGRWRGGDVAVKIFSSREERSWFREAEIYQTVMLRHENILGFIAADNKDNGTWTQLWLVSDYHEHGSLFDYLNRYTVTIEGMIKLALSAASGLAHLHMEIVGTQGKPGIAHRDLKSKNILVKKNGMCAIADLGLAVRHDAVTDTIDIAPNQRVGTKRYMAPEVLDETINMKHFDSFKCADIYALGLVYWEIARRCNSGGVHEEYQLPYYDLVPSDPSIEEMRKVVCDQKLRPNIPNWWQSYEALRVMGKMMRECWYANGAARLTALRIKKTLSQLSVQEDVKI
In the next data set the target is MINK (Homo sapiens (Human), UniProt Q8N4C8). The note with it: cited from earlier work.
Chain of MINK (Q8N4C8 whole entry): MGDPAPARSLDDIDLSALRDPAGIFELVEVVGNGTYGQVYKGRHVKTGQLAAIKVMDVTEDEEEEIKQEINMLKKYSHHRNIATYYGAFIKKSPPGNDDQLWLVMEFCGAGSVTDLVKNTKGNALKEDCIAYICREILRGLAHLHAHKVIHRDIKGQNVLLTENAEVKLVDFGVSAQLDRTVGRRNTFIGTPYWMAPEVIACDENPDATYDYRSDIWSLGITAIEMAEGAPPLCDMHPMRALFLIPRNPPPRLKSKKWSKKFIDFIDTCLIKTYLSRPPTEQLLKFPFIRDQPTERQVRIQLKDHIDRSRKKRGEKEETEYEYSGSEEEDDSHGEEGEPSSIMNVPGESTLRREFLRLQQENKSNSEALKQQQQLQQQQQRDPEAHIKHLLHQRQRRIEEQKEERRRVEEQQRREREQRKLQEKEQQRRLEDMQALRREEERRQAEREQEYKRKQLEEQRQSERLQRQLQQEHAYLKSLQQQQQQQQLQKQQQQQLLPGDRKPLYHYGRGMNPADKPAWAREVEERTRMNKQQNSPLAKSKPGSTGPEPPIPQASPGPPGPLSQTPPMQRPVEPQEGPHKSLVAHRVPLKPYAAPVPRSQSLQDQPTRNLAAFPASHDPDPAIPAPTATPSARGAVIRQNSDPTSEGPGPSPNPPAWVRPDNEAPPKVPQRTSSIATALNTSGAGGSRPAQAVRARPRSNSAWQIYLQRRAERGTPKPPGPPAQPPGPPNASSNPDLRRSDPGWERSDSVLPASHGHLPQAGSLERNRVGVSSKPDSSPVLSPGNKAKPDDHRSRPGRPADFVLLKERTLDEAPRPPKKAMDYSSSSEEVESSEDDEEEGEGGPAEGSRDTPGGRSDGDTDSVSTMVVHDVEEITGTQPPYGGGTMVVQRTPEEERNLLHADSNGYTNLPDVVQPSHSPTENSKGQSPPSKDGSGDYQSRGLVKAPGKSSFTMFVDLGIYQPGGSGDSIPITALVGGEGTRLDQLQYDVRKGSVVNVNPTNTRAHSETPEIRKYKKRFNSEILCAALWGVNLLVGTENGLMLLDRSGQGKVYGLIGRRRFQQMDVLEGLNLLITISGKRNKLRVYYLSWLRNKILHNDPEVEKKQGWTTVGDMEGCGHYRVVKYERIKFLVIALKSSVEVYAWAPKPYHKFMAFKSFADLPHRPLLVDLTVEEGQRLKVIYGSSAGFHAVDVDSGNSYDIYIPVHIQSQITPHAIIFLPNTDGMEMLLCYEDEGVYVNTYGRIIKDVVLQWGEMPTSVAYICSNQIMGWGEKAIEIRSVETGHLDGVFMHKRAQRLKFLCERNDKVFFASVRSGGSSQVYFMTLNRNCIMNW
The next data set addresses TGFβRII (Homo sapiens (Human), UniProt P37173). The following applies: cited from earlier work.
A further data set has as its target ALK6 (Homo sapiens (Human), UniProt O00238). The following applies: cited from earlier work.
In another data set the target is ACVR2B (Homo sapiens (Human), UniProt Q13705). The following applies: cited from earlier work.
Chain of ACVR2B (Q13705 19-512, species assumed): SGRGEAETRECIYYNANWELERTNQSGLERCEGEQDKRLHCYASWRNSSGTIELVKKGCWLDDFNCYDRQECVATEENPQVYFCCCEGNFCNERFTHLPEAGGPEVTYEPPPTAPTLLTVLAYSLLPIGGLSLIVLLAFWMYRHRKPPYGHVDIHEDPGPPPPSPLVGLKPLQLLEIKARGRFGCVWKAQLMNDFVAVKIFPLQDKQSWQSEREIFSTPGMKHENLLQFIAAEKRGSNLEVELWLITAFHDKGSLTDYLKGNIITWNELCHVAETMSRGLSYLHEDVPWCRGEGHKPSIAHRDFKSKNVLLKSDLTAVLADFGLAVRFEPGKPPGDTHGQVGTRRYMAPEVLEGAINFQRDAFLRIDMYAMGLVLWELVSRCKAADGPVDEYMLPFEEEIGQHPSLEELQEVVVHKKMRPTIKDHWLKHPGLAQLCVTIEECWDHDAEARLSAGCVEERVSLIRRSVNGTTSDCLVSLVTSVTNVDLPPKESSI
For data set [6] the following is noted: in vivo; cited from earlier work.
For data set [7] the following is noted: rats; cited from earlier work. The source holds these as a separate data set.
For data set [8] the following is noted: dogs; cited from earlier work.
The subject of another data set is myelofibrosis (MF). The note with it: mouse models; cited from earlier work.
The test system of a further data set is human pancreatic cancer. The note with it: systemic administration; cited from earlier work.
Setting [9] is: male, Sprague-Dawley, po, plasma.

Chain of TGF-beta kinase (ALK-5) (P36897 34-503): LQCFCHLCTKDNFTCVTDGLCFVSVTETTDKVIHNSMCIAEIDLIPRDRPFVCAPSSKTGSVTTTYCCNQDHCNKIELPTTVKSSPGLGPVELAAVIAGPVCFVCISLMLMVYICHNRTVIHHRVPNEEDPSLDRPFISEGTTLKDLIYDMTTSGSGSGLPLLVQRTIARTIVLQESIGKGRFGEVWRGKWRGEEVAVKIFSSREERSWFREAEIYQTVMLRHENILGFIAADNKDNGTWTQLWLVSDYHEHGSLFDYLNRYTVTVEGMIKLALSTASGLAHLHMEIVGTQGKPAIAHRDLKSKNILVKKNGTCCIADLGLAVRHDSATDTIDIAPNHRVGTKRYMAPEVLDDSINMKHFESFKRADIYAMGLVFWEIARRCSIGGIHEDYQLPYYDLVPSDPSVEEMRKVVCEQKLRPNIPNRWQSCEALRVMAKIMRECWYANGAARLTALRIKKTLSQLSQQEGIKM
Chain of Human TGFβR-1 kinase (P36897 34-503): as above
Chain of TGFβRII (P37173 23-567): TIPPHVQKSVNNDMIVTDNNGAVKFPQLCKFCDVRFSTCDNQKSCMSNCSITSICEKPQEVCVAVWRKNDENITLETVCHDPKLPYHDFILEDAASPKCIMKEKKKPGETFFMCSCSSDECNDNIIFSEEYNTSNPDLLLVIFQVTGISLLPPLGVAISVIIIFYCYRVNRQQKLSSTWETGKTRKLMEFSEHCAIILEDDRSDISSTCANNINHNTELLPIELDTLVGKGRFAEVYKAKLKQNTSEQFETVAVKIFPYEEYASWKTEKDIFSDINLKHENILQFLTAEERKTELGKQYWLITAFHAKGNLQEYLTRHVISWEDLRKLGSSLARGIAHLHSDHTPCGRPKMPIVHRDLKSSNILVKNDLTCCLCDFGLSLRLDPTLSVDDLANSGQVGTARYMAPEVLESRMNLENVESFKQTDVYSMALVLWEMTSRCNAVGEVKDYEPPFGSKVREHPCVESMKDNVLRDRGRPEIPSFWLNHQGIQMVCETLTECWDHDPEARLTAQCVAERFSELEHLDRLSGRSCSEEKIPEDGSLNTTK
Chain of ALK6 (O00238 14-502): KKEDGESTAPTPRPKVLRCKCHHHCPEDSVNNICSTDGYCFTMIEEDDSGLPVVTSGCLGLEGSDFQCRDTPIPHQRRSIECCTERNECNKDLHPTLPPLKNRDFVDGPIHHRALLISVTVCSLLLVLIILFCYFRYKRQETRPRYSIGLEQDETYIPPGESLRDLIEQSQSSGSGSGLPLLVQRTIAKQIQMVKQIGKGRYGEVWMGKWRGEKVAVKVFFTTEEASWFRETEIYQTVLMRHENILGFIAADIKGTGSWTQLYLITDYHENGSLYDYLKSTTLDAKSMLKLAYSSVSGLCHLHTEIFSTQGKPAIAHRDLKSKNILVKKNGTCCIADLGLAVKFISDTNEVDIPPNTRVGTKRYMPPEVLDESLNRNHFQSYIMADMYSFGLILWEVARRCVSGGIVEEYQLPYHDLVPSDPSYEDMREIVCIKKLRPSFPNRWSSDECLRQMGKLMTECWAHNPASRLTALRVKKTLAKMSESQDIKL

With `c1ccc(-c2nc3c(c(-n4ccc5cnccc54)n2)CCC3)nc1` [AZ12601011], the “Histopathology finding in heart” value with heart valves was “heart valve lesions”.
Regarding `Cc1ccc(Oc2ccnc(Nc3ccc(S(N)(=O)=O)cc3)c2)c(C)n1` [AZ12799734], the “Histopathology finding in heart” value with heart valves is recorded as “heart valve lesions”.
On to `Cc1cccc(-c2[nH]c(CNc3ccccc3F)nc2-c2ccc3ncnn3c2)n1` [EW-7197], for which the oral bioavailability in data set [1] is 51%.
Usually IC50 stands for the concentration that gives 50% inhibition. In general, microsomal CLint refers to the rate of metabolic loss divided by the concentration. On to `Cc1ccc(CNC(=O)Cn2cc(-c3ccnc4ccccc34)c(-c3cccc(C)n3)n2)cc1` [Example 20, N-(4-methylbenzyl)-2-(3-(6-methylpyridin-2-yl)-4-(quinolin-4-yl)-1H-pyrazol-1-yl)acetamide], for which the 50% inhibitory concentration (IC50) at Human TGFβR-1 kinase and at TGF-beta kinase (ALK-5) was < 100 nM in each case. The “% remanent (sampling time 60 min)” value came out at 0.02% in [2] and 0.01% in data set [3]. Moreover, the microsomal CLint in data set [2] was 381 µL/min/mg; in [3], 216 µL/min/mg. In addition, the Major metabolite identified entry in [4] is recorded as “Compound A”.
Broadly, the AUC(0-inf) is the area under the concentration-time curve extrapolated to infinity. Low readings indicate less exposure, high ones more exposure. As usually defined, the AUC(0-t) is the area under the concentration-time curve up to a stated or last time point. A higher AUC(0-t) goes with more exposure. As usually defined, the Cmax is the maximum level reached in the sampled fluid or tissue. As usually defined, the Tmax is the time from dosing to the highest level. `Cc1cccc(-c2nn(CC(=O)NCc3ccccc3Cl)cc2-c2ccnc3ccccc23)n1` [Example 22, N-(2-chlorobenzyl)-2-(3-(6-methylpyridin-2-yl)-4-(quinolin-4-yl)-1H-pyrazol-1-yl)acetamide]: at Human TGFβR-1 kinase, the IC50 was < 100 nM. The IC50 at TGF-beta kinase (ALK-5) is < 100 nM. For the same compound, in [5] (setting [9]), the AUC(0-inf) came to 15.3 ng·h/mL, the AUC(0-t) is 13.7 ng·h/mL, the Cmax worked out at 20 ng/mL and the Tmax was 19.8 min. In data set [2], the “% remanent (sampling time 60 min)” value worked out at 0.14% and the microsomal CLint worked out at 644 µL/min/mg. In [3], the “% remanent (sampling time 60 min)” value is 0.03% and the microsomal CLint is 378 µL/min/mg. For the same compound, the Major metabolite identified entry in data set [4] is “Compound A”.
In the case of `Cc1cccc(-c2nn(CC(=O)NCc3c(F)cccc3F)cc2-c2ccnc3ccccc23)n1` [Example 24, N-(2,6-difluorobenzyl)-2-(3-(6-methylpyridin-2-yl)-4-(quinolin-4-yl)-1H-pyrazol-1-yl)acetamide], the IC50 at Human TGFβR-1 kinase and on TGF-beta kinase (ALK-5) was < 100 nM in each case. In addition, the “Plasma concentrations quantifiable (PK parameters not calculable)” value in [5] (LLOQ 1.01 ng/mL) is given as “Concentrations were quantifiable only at 0.25”. Further, the “% remanent (sampling time 60 min)” value in data set [2] came to 0.01%; in data set [3], 0.05%. The microsomal CLint in data set [2] came to 360 µL/min/mg; in data set [3], 307 µL/min/mg. Further, in data set [4], the Major metabolite identified result is “Compound A”.
With `Cc1cccc(-c2nn(CC(=O)NCc3c(C)cccc3C)cc2-c2ccnc3ccccc23)n1` [Example 26, N-(2,6-dimethylbenzyl)-2-(3-(6-methylpyridin-2-yl)-4-(quinolin-4-yl)-1H-pyrazol-1-yl)acetamide], the IC50 on Human TGFβR-1 kinase was < 100 nM; at TGF-beta kinase (ALK-5), 100 to 500 nM. The “% remanent (sampling time 60 min)” value in data set [2] turned out to be 0.08%; in data set [3], 0.05%. The microsomal CLint in data set [2] is 826 µL/min/mg; in data set [3], 622 µL/min/mg. In addition, the Major metabolite identified result in [4] is reported as “Compound A”.
Regarding `Cc1cccc(-c2nn3c(c2-c2ccnc4ccc(C(N)=O)cc24)CCC3)n1` [Galunisertib], the IC50 on ALK4 was 770 nM. Besides, the “IC50 MINK” value at MINK is listed as “submicromolar”. Further, the “IC50 TGFβRII” value on TGFβRII is reported as “submicromolar”. Besides, on ALK6, the “IC50 ALK6” value was “submicromolar”. Also, the “IC50 ACVR2B” value at ACVR2B is “submicromolar”. Besides, the “oral bioavailability” value in [6] is given as “orally bioavailable”. The “Major target organs for toxicity” value in data set [7] is “the heart and great vessels”; in data set [8] it was “the heart and great vessels”. Also, the Effect on myelofibrosis result in the data set with myelofibrosis (MF) was “significantly improved MF”.
For the compound `c1ccc(-c2nn3c(c2-c2ccnc4cc(OCCN5CCOCC5)ccc24)CCC3)nc1` [LY2109761], the Effect on metastasis entry in the data set on human pancreatic cancer was “suppresses liver and other abdominal site metastasis”.
